According to article PMC11997890, “In Vivo and In Vitro Pharmacokinetic Studies of a Dual Topoisomerase I/II Inhibitor” (ACS Pharmacology & Translational Science, 2025):

Legend:
OvCar8 cells [1] = assay: 2D monolayer viability assay (ApoLive-Glo); format: cell-based; conditions: Homo sapiens, OVCAR-8; OvCar8 2D monolayer, 48 h
Procedure: (§1) The efficacy of metabolites can have a significant impact on the efficacy of the drug. […] The therapeutic effect of P8-D6 mono and P8-D6 N-oxide was investigated in vitro in human ovarian cancer 2D monolayers and 3D spheroids (Figures and ). 48 h of treatment of the ovarian cancer cell lines (OvCar8, A2780, Igrov-1) with P8-D6 mono and P8-D6 N-oxide was compared to P8-D6 and cisplatin (study preparation scheme supplied as Figure S5). Both metabolites decreased viability in ovarian cancer cells in a 2D monolayer (Figure A, supplied as Figure S3 A,C).
(§2) The human ovarian cancer cell lines OvCar8, Igrov-1, and A2780, purchased from ATCC, were maintained in RPMI1640 medium, including L-glutamine supplemented with 10% fetal bovine serum and 60 IU/mL penicillin–streptomycin. Cells were grown at 37 °C and 5% CO2 in a humidified incubator and subcultivated at a confluency of 70–80%. Cell line authenticity was checked by STR profiling as described previously, and mycoplasma contamination was routinely investigated using MycoAlert (Lonza).
For the measurements of viability and apoptosis, cells of approximately 8000/well were seeded in a Corning No. 3903 plate and treated with the corresponding drugs for 48 h. After treatment, apoptosis and cell viability assays were performed using an ApoLive-Glo Multiplex Assay Kit (Promega #G6410) according to the manufacturer’s instructions. Fluorescence and luminescence units were measured by using a microplate multimode reader (Spark, Tecan). Relative caspase activity was calculated as caspase activity divided by viability (normalized to control). […] All experiments were performed in biological triplicates. PBS was used as the negative control, and cisplatin and P8-D6 were used as the positive controls.

OvCar8 spheroids [2] = assay: 3D spheroid viability (RealTime-Glo); format: cell-based, human; conditions: for IC50: Homo sapiens, OVCAR-8, OvCar8 3D spheroids, 48 h
Procedure: (§3) Tumor complexity is represented more realistically in 3D spheroid models than in 2D monolayer models.
(§4) OvCar8 cells (8000/well) were seeded into an Ultra-Low-Attachment plate (Corning #4520) and grown for 96 h. Then, spheroids were treated with the drugs for 48 h. Cell cytotoxicity was assessed using the CellTox Green Cytotoxicity Assay (Promega #G8731) 48 h after treatment with NYONE ([…], 485Ex/520Em). Filters: BFEx/GreenEm (530/43 nm); BlueEx (475/28 nm)/GreenEm (530/43 nm). Viability and apoptosis were determined by RealTime-Glo (460Em) (Promega #G9711) and caspase-Glo 3/7 (565Em) (Promega #G8090) according to the manufacturer’s instructions using a microplate reader (Spark, Tecan). Relative caspase activity: caspase activity divided by the viability (normalized to control). For live-dead staining, cells were grown and treated as described above. Then, 80% of the medium was removed and replaced with propidium iodide (PI) (15 μM), calcein-AM (0.2 μM), and Hoechst 33342 (1.8 μM) in medium for 3 h and imaged by NYONE ([…]). Filters: BFEx/GreenEm(530/43 nm); Hoechst 33342: UVEx (377/50 nm)/BlueEm (452/45 nm); calcein-AM: BlueEx (475/28 nm)/GreenEm (530/43 nm); propidium iodide: LimeEx(562/40 nm)/RedEm(628/32 nm). All experiments were performed in biological triplicates. PBS was used as the negative control, and cisplatin and P8-D6 as the positive control.

OvCar8 cells [3] = assay: 2D monolayer apoptosis (caspase activity) assay (ApoLive-Glo); format: cell-based, human; conditions: 48 h
Procedure: as §1
as §2, with “Cell line authenticity was checked by STR profiling as described previously, and mycoplasma contamination was routinely investigated using MycoAlert (Lonza).” left out
For the measurements of viability and apoptosis, cells of approximately 8000/well were seeded in a Corning No. 3903 plate and treated with the corresponding drugs for 48 h. […] Fluorescence and luminescence units were measured by using a microplate multimode reader (Spark, Tecan). Relative caspase activity was calculated as caspase activity divided by viability (normalized to control). […]

CYP2D6 = molecular target: T1, CYP2D6 (Homo sapiens, UniProt P10635); assay: Conversion of P8-D6 by recombinant CYP2D6; format: in vitro ADME
T1 construct: host or cells: human liver microsomes (one value) / recombinant CYP enzyme (other value)
T1 sequence (P10635 whole entry): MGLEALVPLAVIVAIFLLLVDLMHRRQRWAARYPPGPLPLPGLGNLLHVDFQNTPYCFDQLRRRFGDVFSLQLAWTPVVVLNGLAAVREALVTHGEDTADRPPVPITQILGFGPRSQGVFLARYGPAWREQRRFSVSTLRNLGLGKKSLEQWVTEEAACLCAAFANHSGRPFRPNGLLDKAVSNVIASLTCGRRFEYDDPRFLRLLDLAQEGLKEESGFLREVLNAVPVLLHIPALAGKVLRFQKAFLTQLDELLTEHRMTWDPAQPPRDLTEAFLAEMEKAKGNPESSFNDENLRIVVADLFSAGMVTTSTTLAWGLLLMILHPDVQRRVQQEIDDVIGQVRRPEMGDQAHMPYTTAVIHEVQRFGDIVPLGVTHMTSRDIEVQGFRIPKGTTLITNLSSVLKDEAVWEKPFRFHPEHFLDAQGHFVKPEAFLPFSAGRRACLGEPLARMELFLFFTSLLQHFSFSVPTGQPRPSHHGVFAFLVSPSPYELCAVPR
Procedure: P8-D6 N-oxide was the most common metabolite for all incubations with subcellular fractions from the homogenized tissue. According to the detected MS-MS fragments (supplied as Supporting Information Chapter 2), it resulted from N-oxygenation of the nitrogen at the side chain since the unmodified fragment of P8-DO (m/z = 414.1) was detected. Furthermore, the detected fragment at m/z = 440.1 is most likely a carbocation at the remaining ethyl chain after splitting off the dimethylamine N-oxide further strengthening the theory of selectively forming this specific N-oxide. In addition, no relevant chemical shifts in the aromatic range of the ^1H NMR compared to P8-D6 and mono were observed (supplied as Supporting Information Chapter 2). Thus, no chemical modifications can have occurred on the aromatic rings, and all changes must therefore affect the side chain. […] To determine which enzymes were responsible for the conversion, seven recombinant CYP 450 isoenzymes recommended by the FDA’s “Guidance for Industry” and human FMO3 were used.
Among the recombinant enzymes, P8-D6 is mostly metabolized to P8-D6 mono by CYP3A4 (0.34%, significant compared to any other enzyme, p < 0.0001) and 2D6 (0.17%, significant compared to 2C8, 1A2, 2C19, and 2C9, p < 0.005) (Figure E). […]

OvCar8 spheroids [4] = assay: 3D spheroid cytotoxicity (CellTox Green); format: cell-based; conditions: Homo sapiens, OVCAR-8, 48 h, OvCar8 3D spheroids, read-out: IC50 cell toxicity (CellTox Green)
Procedure: as §3, §4

IC50 (OvCar8 cells [1]) | IC50 (OvCar8 spheroids [2]) | formation of metabolite from P8-D6 (CYP2D6) | SMILES | efficacy increased compared to cisplatin (OvCar8 spheroids [2]; 3D spheroids) | efficacy reduced compared to P8-D6 mono (OvCar8 spheroids [2]; 3D spheroids) | apoptosis rate higher than cisplatin (OvCar8 cells [3]; 10 μM) | apoptosis induction (OvCar8 cells [3]) | IC50 (OvCar8 spheroids [4])
1980 nM | 720 nM |  | COc1cc(-c2cc3ccncc3c3nc(OCC[N+](C)(C)[O-])c4cnccc4c23)cc(OC)c1OC [P8-D6 N-oxide] | 18 fold | 3 fold | 3.5 fold |  | 
310 nM | 240 nM | 0.17% | CNCCOc1nc2c3cnccc3cc(-c3cc(OC)c(OC)c(OC)c3)c2c2ccncc12 [P8-D6 mono] |  |  |  | comparable to that of P8-D6 | 2220 nM
 |  | 0.09% | COc1cc(-c2cc3ccncc3c3[nH]c(=O)c4cnccc4c23)cc(OC)c1OC [P8-DO] |  |  |  |  | 

SMILES | IC50 (OvCar8 cells [1]) | IC50 (OvCar8 spheroids [2]) | formation of metabolite from P8-D6 (CYP2D6) | efficacy increased compared to cisplatin (OvCar8 spheroids [2]; 3D spheroids) | efficacy reduced compared to P8-D6 mono (OvCar8 spheroids [2]; 3D spheroids) | apoptosis rate higher than cisplatin (OvCar8 cells [3]; 10 μM) | apoptosis induction (OvCar8 cells [3]) | IC50 (OvCar8 spheroids [4])
COc1cc(-c2cc3ccncc3c3nc(OCCN(C)C)c4cnccc4c23)cc(OC)c1OC [P8-D6, 6-(N,N-dimethyl-2-aminoethoxy)-11-(3,4,5-trimethoxyphenyl)-pyrido[3,4-c][1,9]-phenanthroline] | 270 nM |  |  |  |  |  |  | 1110 nM
